The source made the active and inactive calls. No rule for the calls is given here.

The test system of the experiment is cell viability, ATP luminescence (cytotoxicity counter-screen). The experiment in a line: cell viability after agonist treatment – luminescence, dose response, set 2, assay provider, cytotoxicity control for S1P4 agonist project, late-stage follow-up (AID 504875).

For the molecule `COCCN=C1S/C(=C\c2cc(C)n(-c3ccc(F)cc3F)c2C)C(=O)N1C`, the CC50 is > 10 µM (inactive).

As a reminder, the CC50 is the concentration at which the toxic effect on the cells reaches its halfway point.

Source of the values: PubChem BioAssay AID504875 (The Scripps Research Institute Molecular Screening Center, 2011).
